Values joined by “and” are separate entries in the source; they are usually repeats but may differ in a detail not shown here. Equal values may be shown once.
Legend:
[1] = Solid oral delivery of PYY[3-36] in feed restricted rats (serum PYY radioimmunoassay); format: in vivo, Male Sprague Dawley rats; conditions: 1 tablet per animal
Experimental: An oral dosing tube was used.
Blood samples were collected serially from the tail artery, by cardiac puncture, or as in this case by retro-orbitally, typically at time=0, 15, 30, 60 and 90 minutes.

[2] = Liquid oral delivery of PYY[3-36] in rats (oral gavage, serum PYY[3-36] radioimmunoassay); format: in vivo, Male Sprague-Dawley rats; conditions: oral gavage solution, Delivery Agent 200 mg/kg, PYY[3-36] 0.3 mg/kg, 1 ml/kg
Experimental: SNAC monosodium salt, solid was dissolved in water. The pH of this solution was close to pH 7.5, so no pH adjustments were done. […] The final pH of these solutions was 7.5.
The pH was then lowered to 7.7 by adding HCl (5N). […] The final pH of these solutions varied between 7.5 and 7.6.
Each delivery agent compound (as the free acid or monosodium salts) was dissolved in water. The pH was adjusted to approximately 7.5 by adding HCl (5N) and NaOH (5N) as needed. […] The final pH of these solutions was approximately 7.5.
The typical dosing and sampling protocols were as follows. Male Sprague-Dawley rats weighing between 240-320 g were fasted up to a maximum 24 hours before the experiments and administered ketamine (44 mg/kg) and thorazine (1.5 mg/kg) by intramuscular injection before the test article administration. Afterwards, the anesthetized animals were administered the test article by oral gavage. A dosing group of five animals was administered one of the dosing solutions. For oral gavage (PO), an 11 cm Rusch 8 French catheter was adapted to a 1 ml syringe with a pipette tip. The syringe was filled with dosing solution by drawing the solution through the catheter, which was then wiped dry. The catheter was placed down the esophagus leaving 1 cm of tubing past the incisors. The dosing solution was administered by pressing the syringe plunger.
Blood samples were collected serially from the tail artery, or by cardiac puncture, typically at time=0, 15, 30, 45, 60 and 90 minutes. […] Results from the animals in each group were averaged for each time point.

[3] = rats, end of 7-day study, food found in the stomachs
Experimental: Food was removed prior to dosing and returned 30 minutes after dosing.
An oral dosing tube was used. The dosing tube was inserted into the rat's mouth and carefully threaded down the rats pharynx and esophagus about 8 cm to about 15 cm depending on the weight of the rat (typically about 11 cm). The solid dosage form was delivered into the distal esophagus and/or stomach by pressing the plunger of the oral dosing tube.
Food consumption was determined every 24 hours from the weight difference between the food given to and food left over by each rat. The body weight of each rat was determined every 24 hours.

[4] = Delivery Agent 100 mg/kg, PYY[3-36] 0.3 mg/kg
[5] = Delivery Agent 50 mg/kg, PYY[3-36] 0.3 mg/kg

Row | Compound | Mean serum peak of PYY (pg/ml) ± SD [1, 4] [pg/mL] | Mean Peak Serum [PYY(3-36)] (pg/ml) ± SD [2] | also measured
1 | COc1ccc(C(=O)NCCCCCCCC(=O)O)c(O)c1 [Delivery Agent 4, 8-(2-hydroxy-4-methoxybenzoylamino)octanoic acid] | 1821.82 ± 1513.84 | 830.246 ± 71.382 pg/mL | –
2 | O=C(O)CCCCCCCNC(=O)c1c(O)cccc1O [Delivery Agent 5, 8-(2,6-dihydroxybenzoylamino)octanoic acid] | – | 800.318 ± 40.61 pg/mL | –
3 | O=C(O)CCCCCCCNC(=O)c1cc(Br)ccc1O [Delivery Agent 6, 8-(2-hydroxy-5-bromobenzoylamino)octanoic acid] | – | 812.946 ± 53.616 pg/mL | –
4 | O=C(O)CCCCCCCNC(=O)c1cc(Cl)ccc1O [Delivery Agent 7, 8-(2-hydroxy-5-chlorobenzoylamino)octanoic acid] | 1064.18 ± 363.8 | 663.472 ± 135.394 pg/mL | Mean serum peak of PYY (pg/ml) ± SD [1, 5]: 725.96 ± 110.78 pg/mL; Mean serum peak of PYY (pg/ml) ± SD ([1]; Delivery Agent 100 mg/kg, PYY[3-36] 0 mg/kg (delivery agent alone)): 14.35 ± 19.71 pg/mL
5 | O=C(O)CCCCCCCNC(=O)c1cc(I)ccc1O [Delivery Agent 8, 8-(2-hydroxy-5-iodobenzoylamino)octanoic acid] | – | 276.82 ± 425.45 pg/mL | –
6 | Cc1ccc(O)c(C(=O)NCCCCCCCC(=O)O)c1 [Delivery Agent 9, 8-(2-hydroxy-5-methylbenzoylamino)octanoic acid] | 1309.8 ± 836.33 | 732.912 ± 266.578 pg/mL | –
7 | O=C(O)CCCCCCCNC(=O)c1cc(F)ccc1O [Delivery Agent 10, 8-(2-hydroxy-5-fluorobenzoylamino)octanoic acid] | – | 846.416 ± 55.993 pg/mL | Mean serum peak of PYY (pg/ml) ± SD [1, 5]: 897.18 ± 549.5 pg/mL
8 | O=C(O)CCCCCCCOc1cccc(O)c1 [Delivery Agent 12, 8-(3-hydroxyphenoxy)octanoic acid] | – | 845.682 ± 69.846 pg/mL and 1047.46 ± 36.93 pg/mL | –
9 | O=C(O)CCCCCCCOc1ccc(O)cc1 [Delivery Agent 13, 8-(4-hydroxyphenoxy)octanoic acid] | – | 826.48 ± 379.12 pg/mL | –
10 | N#Cc1ccccc1OCCCCCC(=O)O [Delivery Agent 14, 6-(2-cyanophenoxy)hexanoic acid] | – | 913.536 ± 33.688 pg/mL and 1083.38 ± 78.878 pg/mL | –
11 | O=C(O)CCCCCCCOc1ccc(O)cc1 [Delivery Agent 17, 8-(4-hydroxyphenoxy)octanoate] | – | – | Mean serum peak of PYY (pg/ml) ± SD ([1]; Delivery Agent 100 mg/kg, PYY[3-36] 0.3 mg/kg, listed as 17): 897.18 ± 549.5 pg/mL
12 | O=C(O)CCCCCCCOc1ccc(O)cc1 [Delivery Agent 18, 8-(4-hydroxyphenoxy)octanoate] | 1216.13 ± 661.31 | – | Mean serum peak of PYY (pg/ml) ± SD [1, 5]: 940.33 ± 1090.65 pg/mL
13 | PYY[3-36] | – | – | effect on gastric emptying [3]: no effect on gastric emptying
